# Measurements from patent US8759535B2, “Substituted fused imidazole derivatives, pharmaceutical compositions, and methods of use thereof” (High Point Pharmaceuticals, LLC, priority 2010, dated 2014).
# Where a name gives a salt, the structure may show the parent alone.
# System: HMOX1
# Assay: HMOX1 Protein Assay (immunostaining of HO-1 in NHLF cells, GE InCell 1000)
# Assay type: cell-based
# Conditions: Homo sapiens, fold change above DMSO treated cells, 3 μM compound (asterisk), 16 h
# In short: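 NHLF cells seeded overnight in FGM-2, then exposed to compound or DMSO vehicle for 16 h, fixed, and immunostained for HO-1 with Hoechst nuclear counterstain; imaged on InCell 1000. Values are fold change over DMSO-treated cells, generally at 5 μM (0.8% DMSO), with asterisked entries at 3 μM.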
row,Compound,fold induction at 3 µM
1,"CO[C@H]1CCN(C(=O)CNC(=O)c2ccc3c(c2)nc(Nc2nc4ccc(Cl)cc4s2)n3C)C1 [Example 409, 2-(6-Chloro-benzothiazol-2-ylamino)-1-methyl-1H-benzoimidazole-5-carboxylic acid [2-((S)-3-methoxy-pyrrolidin-1-yl)-2-oxo-ethyl]-amide]",29
2,"Cn1c(Nc2nc3ccc(C(F)(F)F)cc3s2)nc2cc(C(=O)NCC(=O)N3CCC[C@H](O)C3)ccc21 [Example 434, 1-Methyl-2-(6-trifluoromethyl-benzothiazol-2-ylamino)-1H-benzoimidazole-5-carboxylic acid [2-((S)-3-hydroxy-piperidin-1-yl)-2-oxo-ethyl]-amide]",34.6
3,"Cn1c(Nc2nc3ccc(Cl)cc3s2)nc2cc(C(=O)NCCF)ccc21 [Example 209, 2-(6-Chloro-benzothiazol-2-ylamino)-1-methyl-1H-benzoimidazole-5-carboxylic acid (2-fluoro-ethyl)-amide]",14.2
4,"CO[C@@H]1CCCN(C(=O)CNC(=O)c2ccc3c(c2)nc(Nc2nc4ccc(C(F)(F)F)cc4s2)n3C)C1 [Example 446, 1-Methyl-2-(6-trifluoromethyl-benzothiazol-2-ylamino)-1H-benzoimidazole-5-carboxylic acid [2-((R)-3-methoxy-piperidin-1-yl)-2-oxo-ethyl]-amide]",31.3

# Same assay, conditions: Homo sapiens, fold change above DMSO treated cells, 5 μM compound, 16 h
row,Compound,fold induction at 5 µM
1,"Cn1c(Nc2nc3ccc(OC(F)(F)F)cc3s2)nc2cc(C(=O)NCCn3cccn3)ccc21 [Example 328, 1-Methyl-2-(6-trifluoromethoxy-benzothiazol-2-ylamino)-1H-benzoimidazole-5-carboxylic acid (2-pyrazol-1-yl-ethyl)-amide]",29.4
2,"COC(=O)[C@H](C)NC(=O)c1ccc2c(c1)nc(Nc1nc3ccc(OC(F)(F)F)cc3s1)n2C [Example 143, (S)-2-{[1-Methyl-2-(6-trifluoromethoxy-benzothiazol-2-ylamino)-1H-benzoimidazole-5-carbonyl]-amino}-propionic acid methyl ester]",22.4
3,"Cn1c(Nc2nc3ccc(OC(F)(F)F)cc3s2)nc2cc(C(=O)NCCC(=O)O)ccc21 [Example 98, 3-{[2-(6-Trifluoromethoxy-benzothiazol-2-ylamino)-1-methyl-1H-benzimidazole-5-carbonyl]-amino}-propionic acid]",13.8
4,"Cn1c(Nc2nc3ccc(OC(F)(F)F)cc3s2)nc2cc(C(=O)NC[C@H]3CC[C@H](O)CC3)ccc21 [Example 232, 1-Methyl-2-(6-trifluoromethoxy-benzothiazol-2-ylamino)-1H-benzoimidazole-5-carboxylic acid (trans-4-hydroxy-cyclohexylmethyl)-amide]",33
5,"CCNC(=O)c1ccc2c(c1)nc(Nc1nc3cc(F)c(F)cc3s1)n2C [Example 35, 2-(5,6-Difluoro-benzothiazol-2-ylamino)-1-methyl-1H-benzoimidazole-5-carboxylic acid ethylamide]",12.4
6,"CCn1c(Nc2nc3ccc(OC(F)(F)F)cc3s2)nc2cc(C(=O)NCC(=O)N3CCN(C)CC3)ccc21 [Example 190, 1-Ethyl-2-(6-trifluoromethoxy-benzothiazol-2-ylamino)-1H-benzoimidazole-5-carboxylic acid [2-(4-methyl-piperazin-1-yl)-2-oxo-ethyl]-amide]",23.4
7,"Cn1c(Nc2nc3cc(F)c(F)cc3s2)nc2cc(C(=O)O)ccc21 [Example 34, 2-(5,6-Difluoro-benzothiazol-2-ylamino)-1-methyl-1H-benzoimidazole-5-carboxylic acid]",15.4
8,"COCCOCCNC(=O)c1ccc2c(c1)nc(Nc1nc3ccc(Cl)cc3s1)n2C [Example 261, 2-(6-Chloro-benzothiazol-2-ylamino)-1-methyl-1H-benzoimidazole-5-carboxylic acid [2-(2-methoxy-ethoxy)-ethyl]-amide]",35.7
9,"Cn1c(Nc2nc3ccc(OC(F)(F)F)cc3s2)nc2ccc(CC(N)=O)cc21 [Example 202, 2-[1-Methyl-2-(6-trifluoromethoxy-benzothiazol-2-ylamino)-1H-benzoimidazol-6-yl]-acetamide]",15.6
10,"COc1ccc(CNC(=O)c2ccc3c(c2)nc(Nc2nc4ccc(OC(F)(F)F)cc4s2)n3C)cc1O [Example 231, 1-Methyl-2-(6-trifluoromethoxy-benzothiazol-2-ylamino)-1H-benzoimidazole-5-carboxylic acid 3-hydroxy-4-methoxy-benzylamide]",30.2
11,"COC(=O)c1ccc2c(c1)nc(Nc1nc3ccc(S(C)(=O)=O)cc3s1)n2C [Example 113, 2-(6-Methanesulfonyl-benzothiazol-2-ylamino)-1-methyl-1H-benzoimidazole-5-carboxylic acid methyl ester]",27.6
12,"CNC(=O)c1ccc2c(c1)nc(Nc1nc3ccc(C)cc3s1)n2C [Example 128, 2-(6-Methyl-benzothiazol-2-ylamino)-1-methyl-1H-benzimidazole-5-carboxylic acid methylamide]",32.7
13,"Cn1c(Nc2nc3ccc(Cl)cc3s2)nc2cc(C(=O)N[C@H]3CCNC3)ccc21 [Example 291, 2-(6-Chloro-benzothiazol-2-ylamino)-1-methyl-1H-benzoimidazole-5-carboxylic acid (S)-pyrrolidin-3-ylamide hydrochloride]",17
14,"C[C@H](O)CNC(=O)c1ccc2c(c1)nc(Nc1nc3ccc(OC(F)(F)F)cc3s1)n2C [Example 50, 1-Methyl-2-(6-trifluoromethoxy-benzothiazol-2-ylamino)-1H-benzoimidazole-5-carboxylic acid ((S)-2-hydroxy-propyl)-amide]",11.1
15,"COC(=O)c1cc2nc(Nc3nc4ccc(OC(F)(F)F)cc4s3)n(C)c2cc1OC [Example 61, 6-Methoxy-1-methyl-2-(6-trifluoromethoxy-benzothiazol-2-ylamino)-1H-benzoimidazole-5-carboxylic acid methyl ester]",12.1
16,"Cn1c(Nc2nc3ccc(Cl)cc3s2)nc2cc(C(=O)NCC(C)(C)CO)ccc21 [Example 218, 2-(6-Chloro-benzothiazol-2-ylamino)-1-methyl-1H-benzoimidazole-5-carboxylic acid (3-hydroxy-2,2-dimethyl-propyl)-amide]",39.2
17,"COC(=O)c1ccc2c(c1)nc(Nc1nc3cc(F)ccc3s1)n2C [Example 111, 2-(5-Fluoro-benzothiazol-2-ylamino)-1-methyl-1H-benzoimidazole-5-carboxylic acid methyl ester]",17.6
18,"Cn1c(Nc2nc3ccc(OC(F)(F)F)cc3s2)nc2cc(C(=O)NCCCO)ccc21 [Example 13, 1-Methyl-2-(6-trifluoromethoxy-benzothiazol-2-ylamino)-1H-benzoimidazole-5-carboxylic acid (3-hydroxy-propyl)-amide]",20.1
19,"Cn1c(Nc2nc3ccc(OC(F)(F)F)cc3s2)nc2cc(C(=O)NCCn3ccnc3)ccc21 [Example 327, 1-Methyl-2-(6-trifluoromethoxy-benzothiazol-2-ylamino)-1H-benzoimidazole-5-carboxylic acid (2-imidazol-1-yl-ethyl)-amide]",31.9
20,"COCCNC(=O)c1cc2nc(Nc3nc4ccc(OC(F)(F)F)cc4s3)n(C)c2cc1OC [Example 67, 6-Methoxy-1-methyl-2-(6-trifluoromethoxy-benzothiazol-2-ylamino)-1H-benzoimidazole-5-carboxylic acid (2-methoxy-ethyl)-amide]",18.7
21,"Cn1c(Nc2nc3ccc(OC(F)(F)F)cc3s2)nc2cc(C(=O)NCC(=O)N3CCC(C(F)(F)F)CC3)ccc21 [Example 449, 1-Methyl-2-(6-trifluoromethoxy-benzothiazol-2-ylamino)-1H-benzoimidazole-5-carboxylic acid [2-oxo-2-(4-trifluoromethyl-piperidin-1-yl)-ethyl]-amide]",23
22,"Cn1c(Nc2nc3ccc(OC(F)(F)F)cc3s2)nc2cc(C(=O)NCC3CN(C(=O)OC(C)(C)C)CCO3)ccc21 (stereo not shown) [Example 55, 2-({[1-Methyl-2-(6-trifluoromethoxy-benzothiazol-2-ylamino)-1H-benzoimidazole-5-carbonyl]-amino}methyl)-morpholine-4-carboxylic acid tert-butyl ester]",4.5
23,"Cn1c(Nc2nc3ccc(Cl)cc3s2)nc2cc(C(=O)N[C@@H]3CCNC3)ccc21 [Example 290, 2-(6-Chloro-benzothiazol-2-ylamino)-1-methyl-1H-benzoimidazole-5-carboxylic acid (R)-pyrrolidin-3-ylamide hydrochloride]",22.5
24,"CCn1c(Nc2nc3ccc(Cl)cc3s2)nc2cc(C(=O)NC)ccc21 [Example 174, 2-(6-Chloro-benzothiazol-2-ylamino)-1-ethyl-1H-benzoimidazole-5-carboxylic acid methylamide]",26.2
25,"Cn1c(Nc2nc3ccc(OC(F)(F)F)cc3s2)nc2cc(C(=O)NCC3CCCO3)ccc21 (stereo not shown) [Example 18, 1-Methyl-2-(6-trifluoromethoxy-benzothiazol-2-ylamino)-1H-benzoimidazole-5-carboxylic acid (tetrahydro-furan-2-ylmethyl)-amide]",20.1
26,"Cn1c(Nc2nc3ccc(Cl)cc3s2)nc2cc(C(=O)NCC(=O)NC3CCOC3)ccc21 (stereo not shown) [Example 384, 2-(6-Chloro-benzothiazol-2-ylamino)-1-methyl-1H-benzoimidazole-5-carboxylic acid [(tetrahydro-furan-3-ylcarbamoyl)-methyl]-amide]",26
27,"CCNC(=O)c1ccc2c(c1)nc(Nc1nc3ccc(OC(F)(F)F)cc3s1)n2C [Example 6, 1-Methyl-2-(6-trifluoromethoxy-benzothiazol-2-ylamino)-1H-benzoimidazole-5-carboxylic acid ethylamide]",9.45
